{"source": "patent US8742088B2", "about": "“Nucleic acids encoding antibodies or portions thereof comprising a heterologous T cell epitope and their use in modulating T cell responses” (priority 2007, dated 2014)", "tested_on": "predicted CTL epitopes from Tie-2", "assay": "Ex-vivo IFNγ ELISPOT with predicted CTL epitopes from Tie-2", "type": "in vivo, HHDII mice", "settings": "for Peptide-specific IFNγ response, highest mean value: peptide in IFA", "procedure": "(C) and (D) HHDII mice were either untreated (c) or treated with 400 μg PC61mAb i.p., (d). 4 days later, all mice were immunized with the Tie2 C200HFc DNA construct. DNA immunizations were repeated at 7 day intervals for a total of 3 immunisations. 6 days after the final immunisation, splenocytes were harvested and restimulated in an ex-vivo IFNγ ELISPOT assay with 1 μg/ml of each of the predicted CTL epitopes from Tie-2. Bars indicate the mean of triplicate values for each individual mouse, normalized to background controls, with error bars representing the standard deviation from the mean.\n(E) and (F), HHDII mice were either untreated (e) (n=3) or treated (f) (n=2) with 400 μg PC61 antibody i.p. After 4 days, all mice were immunised with 100 μg Z12 peptide and 100 μg Z48 peptide, mixed 1:1 in IFA (s.c.). Repeat peptide immunisations were administered 7 days after the first peptide immunisation. Splenocytes were harvested 14 days after the final immunisation and restimulated with 1 μg/ml Z12 peptide (black bars) or media alone (open bars) in an IFNγ ELIspot assay. Bars indicate the mean of triplicate values with error bars representing the standard deviation from the mean.\n(G) HHDII mice were immunised with 100 μg Z12 peptide mixed 1:1 in IFA (s.c.). […] Splenocytes were harvested 7 days after the final immunisation and analysed for the presence of epitope specific responses to increasing peptide concentration in IFNγ elispot assay. Responses are measured from individual mice as spots/million splenocytes and avidity is assigned as the concentration which gives 50% maximal effector function.\n(H) HHDII mice were immunised with ImmunoBody DNA construc DCIB71 via gene gun at days 0, 7 and 14. Splenocytes were harvested 7 days after the final immunisation and analysed for the presence of epitope specific responses to increasing peptide concentration in IFNγ elispot assay. Responses are measured from individual mice as spots/million splenocytes and avidity is assigned as the concentration which gives 50% maximal effector function. […]"}
{"sequence": "ILINSLPLV [Z282, I L I N S L P L V]", "values": [{"measurement": "Peptide-specific IFNγ response, highest mean value", "setting": "CD25 depleted animals, mouse 2", "value": 137, "unit": "SFC/million cells"}, {"measurement": "Peptide-specific IFNγ response, highest mean value", "setting": "non-depleted animals, mouse 3", "value": 215, "unit": "SFC/million cells"}, {"measurement": "z12 epitope specific responses (frequency and avidity)", "setting": "three weekly immunisations, peptide titration", "value": "low frequency and avidity epitope specific responses"}]}
